Data on 8 molecules can be found in patent publication US8071142B2, “Anti-bacterial use of extract from Morus australis poir. and compound kuwanon h” (Medical and Pharmaceutical Industry Technology and …, priority 2008, dated 2011).

Broadly, the MIC is the lowest concentration found to suppress growth.

Common to all, as to type: cell-based
The subject of test [1] is Staphylococcus aureus, Methicillin Resistant (ATCC 33591). In words: Anti-microbial test, MIC by broth dilution method, methicillin resistant Staphylococcus aureus. The conditions noted are these: for MIC: Staphylococcus aureus, ATCC 33591 / MRSA, read-out: MIC MRSA. The procedure:
(§1) Staphylococcus aureus (Smith), and Staphylococcus aureus, Methicillin Resistant (ATCC 33591), In Vitro Bacteria
(§2) Minimum inhibitory concentration (MIC) of sample on Staphylococcus aureus (Smith) and Staphylococcus aureus, Methicillin Resistant (ATCC 33591) was determined by the broth dilution method [Edwards J. R. et al. In vitro antibacterial activity of SM-7338, a carbapenem antibiotic with stability to dehydropeptidase I. Antimicrobial Agents Chemotherapy. 33: pp. 215-222, 1989]. The test substance was dissolved (generally 100% DMSO) and serially diluted in solvent to desired stock concentrations. For each concentration tested, a 0.01 ml aliquot (1% DMSO final concentration) was added to a 48-well plate after which 0.99 ml of Mueller-Hinton Broth (DIFCO, USA.) with 1-5×10^5 CFU/ml of Staphylococcus aureus (Smith) or Staphylococcus aureus, Methicillin Resistant (ATCC 33591) was added. Thus, final maximal concentration of DMSO was 1% and the initial test substance concentration was 100 μg/ml or 30 μM. The plates were incubated at 37° C. for 20 hours and then visually examined and scored positive (+) for inhibition of growth or turbidity or negative (−) for no effect upon growth or turbidity. Vehicle-control and active reference agents were used as blank and positive controls, respectively. Each concentration was evaluated in duplicate.
On the technique in general: In broth dilution the organism is exposed to a series of concentrations in liquid medium.

Test [2] has as its system Staphylococcus aureus (Smith). In words: Anti-microbial test, MIC by broth dilution method, Staphylococcus aureus (Smith). The settings on record: for MIC: Staphylococcus aureus, read-out: MIC SA (Smith). The procedure:
as §1, §2

Test [3] has as its system Streptococcus pneumoniae (ATCC 6301). In words: Anti-microbial test, MIC by broth dilution method, Streptococcus pneumoniae. The conditions noted are these: for MIC: Streptococcus pneumoniae, read-out: MIC SP. As to the method: (§3) Streptococcus pneumoniae (ATCC 6301) and Streptococcus pneumoniae (Erythromycin and Ampicillin Res. Clin. Isol.), In Vitro Bacteria
(§4) Minimum inhibitory concentration (MIC) of sample on Streptococcus pneumoniae and Streptococcus pneumoniae (Erythromycin and Ampicillin Res. Clin. Isol.) was determined by the broth dilution method [Edwards J. R. et al. In vitro antibacterial activity of SM-7338, a carbapenem antibiotic with stability to dehydropeptidase I. Antimicrobial Agents Chemotherapy. 33: pp. 215-222, 1989.]. The test substance was dissolved (generally 100% DMSO) and serially diluted in solvent to desired stock concentrations. For each concentration tested, a 0.01 ml aliquot (1% DMSO final concentration) was added to a 48-well plate after which 0.99 ml of Tryptic Soy Broth (DIFCO, U.S.A.) containing 7% fetal bovine serum with 1-5×10^5 CFU/ml of Streptococcus pneumoniae (ATCC 6301) or Streptococcus pneumoniae (Erythromycin and Ampicillin Res. Clin. Isol.) was added. Thus, final maximal concentration of DMSO was 1% and the initial test substance concentration was 100 μg/ml or 30 μM. The plates were incubated at 37° C. for 20 hours and then visually examined and scored positive (+) for inhibition of growth or turbidity or negative (−) for no effect upon growth or turbidity. Vehicle-control and active reference agents were used as blank and positive controls, respectively. Each concentration was evaluated in duplicate.

Test [4] has as its system Streptococcus pneumoniae (Erythromycin and Ampicillin Res. Clin. Isol.). In words: Anti-microbial test, MIC by broth dilution method, resistant Streptococcus pneumoniae. The settings on record: for MIC: Streptococcus pneumoniae, read-out: MIC SP (EM & AM Res.). As to the method: as §3, §4
Where [5] appears, read: Mueller-Hinton Broth, 37° C., 20 hours, 1% DMSO, visual growth/turbidity.
Setting [6] is: ATCC6301, Tryptic Soy Broth with 7% fetal bovine serum, 37° C., 20 hours, 1% DMSO.
[7] abbreviates: clinical isolates, Tryptic Soy Broth with 7% fetal bovine serum, 37° C., 20 hours, 1% DMSO.

≈ marks a conversion by molar mass, not a printed value. Like-named read-outs stand apart in the source and are kept apart here.

With `CC1(C)S[C@@H]2[C@H](NC(=O)[C@H](N)c3ccccc3)C(=O)N2[C@H]1C(=O)O` [Ampicillin, reference compound], the MIC is 30 µg/mL (≈ 85.9 µM) in test [1] (setting [5]), 0.1 µg/mL (≈ 0.286 µM) in test [2] (setting [5]), 0.01 µg/mL (≈ 0.0286 µM) in test [3] (setting [6]) and 3 µg/mL (≈ 8.59 µM) in test [4] (setting [7]).
With `CC1=CC(c2c(O)cc(-c3cc4ccc(O)cc4o3)cc2O)C(C(=O)c2ccc(O)cc2O)[C@H](c2ccc(O)cc2O)C1` (stereo partly drawn) [P2-1], the MIC in test [1] (20 h) is above 100 µg/mL; in test [2] (20 h), 3 µg/mL (≈ 5.17 µM); in test [3] (ATCC6301, 20 h), 100 µg/mL (≈ 172 µM); in test [4] (20 h), 30 µg/mL (≈ 51.7 µM).
With `CC(C)=CCc1c(-c2ccc(O)cc2O)oc2c(C3C=C(C)C[C@@H](c4ccc(O)cc4O)C3C(=O)c3ccc(O)cc3O)c(O)cc(O)c2c1=O` (stereo partly drawn) [P2-2], the MIC in test [1] (20 h) is above 100 µg/mL; in test [2] (20 h) it was 3 µg/mL (≈ 4.33 µM); in test [3] (ATCC6301, 20 h), 30 µg/mL (≈ 43.3 µM); in test [4] (setting [7]) it was 30 µg/mL (≈ 43.3 µM).
`CC(C)=CCCC1=CC(c2c(O)cc3c(c2O)C(=O)CC(c2ccc(O)cc2O)O3)C(C(=O)c2ccc(O)cc2O)C(c2ccc(O)cc2O)C1` (stereo not drawn) [P3-1]: the MIC in test [1] (setting [5]) is 3 µg/mL (≈ 4.32 µM); in test [2] (setting [5]) it was 1 µg/mL (≈ 1.44 µM); in test [3] (setting [6]), 30 µg/mL (≈ 43.2 µM); in test [4] (setting [7]), 10 µg/mL (≈ 14.4 µM).
In the case of `CC(C)=CCc1c(O)ccc(C(=O)C2C(c3c(O)cc(O)c4c(=O)c(CC=C(C)C)c(-c5ccc(O)cc5O)oc34)C=C(C)CC2c2ccc(O)cc2O)c1O` (stereo not drawn) [P3-2, 8-[6-[2,4-dihydroxy-3-(3-methyl-but-2-enyl)-benzoyl]-5-(2,4-dihydroxy-phenyl)-3-methyl-cyclohex-2-enyl]-2-(2,4-dihydroxy-phenyl)-5,7-dihydroxy-3-(3-methyl-but-2-enyl)-chromen-4-one], the MIC in test [1] (setting [5]) worked out at 0.3 µg/mL (≈ 0.394 µM); in test [2] (setting [5]), 0.3 µg/mL (≈ 0.394 µM); in test [3] (setting [6]), 10 µg/mL (≈ 13.1 µM); in test [4] (setting [7]), 10 µg/mL (≈ 13.1 µM).
`CC(C)=CCc1c(-c2ccc(O)cc2O)oc2c3c(cc(O)c2c1=O)OC(C)(C)C=C3` [P3-3, 2-(2,4-dihydroxy-phenyl)-5-hydroxy-8,8-dimethyl-3-(3-methyl-but-2-enyl)-8H-pyrano[2,3-f]chromen-4-one]: the MIC in test [1] (setting [5]) is 100 µg/mL (≈ 238 µM); in test [2] (setting [5]), 10 µg/mL (≈ 23.8 µM); in test [3] (setting [6]), 100 µg/mL (≈ 238 µM); in test [4] (setting [7]), 30 µg/mL (≈ 71.4 µM).
Turning to `CC(C)=CCC/C(C)=C/Cc1c(O)ccc2cc(-c3cc(O)cc(O)c3CC=C(C)C)oc12` [P3-4], the MIC in test [1] (20 h) was determined as 100 µg/mL (≈ 224 µM); in test [2] (20 h), 3 µg/mL (≈ 6.72 µM); in test [3] (ATCC6301, 20 h), 30 µg/mL (≈ 67.2 µM); in test [4] (20 h), 10 µg/mL (≈ 22.4 µM).
In the case of Gentamicin [reference compound], the “MIC MRSA” value in test [1] (setting [5]) was 1 µg/mL. Moreover, the “MIC on MRSA relative to MIC on SA (Smith)” value in test [1] (ratio MRSA / SA (Smith)) came to 10 times. Moreover, the “MIC SA (Smith)” value in test [2] (setting [5]) came out at 0.1 µg/mL. Further, in test [3] (Tryptic Soy Broth with 7% fetal bovine serum, 37° C., 20 hours, 1% DMSO), the “MIC SP” value came to 100 µg/mL. Besides, the “MIC SP (EM & AM Res.)” value in test [4] (setting [7]) was 100 µg/mL.
